According to US20070010538A1, “Inhibition of pathogenic processes related to tissue trauma” (priority 1998, published 2007):

Experiments:
[1] = test system: collagen type I gene expression; assay: Northern blot for collagen type I gene expression in myometrial and leiomyosarcoma cells; assay type: cell-based, human; settings: increasing concentrations, about 48 hours
Description: Myometrial and leiomyosarcoma cells were taken from the same patient and were plated into 10 cm plates in DMEM supplemented with 10% FCS. When the cells reached 80% confluence, the medium was replaced by serum free DMEM plus 0.1% BSA for 48 hours, washed and exposed to increasing concentrations of Halofuginone in the same medium for about 48 hours at about 37° C. The cells were then harvested and subjected to RNA extraction and Northern blot analysis for collagen type I gene expression.

[2] = test system: collagen type I gene expression; assay: Northern blot for collagen type I gene expression in human skin fibroblasts; assay type: cell-based; settings: primary culture
Description: (§1) Next, human skin fibroblasts were taken from a subject and were maintained in primary culture. Control cells were treated with vehicle while Halofuginone-treated cells were treated with Halofuginone as previously described. The cells were then harvested and subjected to RNA extraction and Northern blot analysis for collagen type I gene expression and for cKrox gene expression.

cKrox gene expression = assay: Northern blot for cKrox gene expression in human skin fibroblasts; assay type: cell-based; settings: primary culture
Description: as §1

[3] = test system: MMP2 (72 kDa type IV collagenase); assay: Gelatin zymography of type IV collagenase activity in T50 bladder carcinoma cell cultures; assay type: cell-based
Description: Sub-confluent cell cultures were incubated for 6-24 h in serum-free DMEM. The collagenolytic activity was determined on a gelatin impregnated (1 mg/ml. Difco, Detroit, Mich.) SDS-PAGE 8% gel. Briefly, culture media samples were separated on the substrate impregnated gels under non reducing conditions, followed by 30 min incubation in 2.5% Triton X-100 (BDH, England). The gels were then incubated for 16 h at 37° C. in 50 mM Tris, 0.2 M NaCl, 5 mM CaCl2, 0.02% Brij 35 (weight/volume) at pH 7.5. At the end of incubation period, the gels were stained with 0.5% Coomassie G250 (Bio-Rad Richmond Calif.) in methanol/acetic acid/H2O (30:10:60). The intensity of the various bands was determined on a computerized densitometer (Molecular Dynamics type 300A).

[4] = test system: cell invasion through matrigel ECM; assay: Boyden chamber invasion assay; assay type: cell-based; settings: data not shown
Description: Such inhibition supports the inclusion of type IV collagenase inhibition as part of the extracellular matrix economy mechanism, in which Halofuginone inhibits undesirable pathological processes such as tumor growth, progression and metastasis, as described previously.

H19 gene = assay: Northern blot for H19 gene expression in bladder carcinoma cell lines; assay type: cell-based, human; settings: 130 ng/ml
Description: RT112 and 5376 human bladder carcinoma cell lines were cultured in the absence and presence of Halofuginone (130 ng/ml, added 24 h or 72 h after seeding), and the expression of the H19 gene was evaluated by Northern blot analysis ([…]. et al., Arterioscler. Thromb. Vasc. Biol., Vol. 17, p. 194-202, 1997). […] Such inhibition also supports the inclusion of the inhibition of H19 gene expression as part of the extracellular matrix economy mechanism, as described previously.

αv integrin subunit = assay: Northern blot for integrin αv mRNA in MDA 435 breast carcinoma cells; assay type: cell-based, human; settings: MDA 435 cells
Description: (§2) Therefore, the effect of Halofuginone was investigated on the expression of αv, β3 and β5 integrin subunits in the highly aggressive MDA 435 human breast carcinoma cell line. Cells were cultured in the absence (FIG. 4, lanes A & B) or presence of increasing concentrations (10-400 ng/ml) of Halofuginone for 24 h (lane C: 400 ng/ml), 48 h (lanes D-G: 10, 50, 200, and 400 ng/ml, respectively) or 72 h (FIG. 4, lane H: 400 ng/ml). Total RNA was extracted, subjected to 1.1% formaldehyde-agarose gel electrophoresis, transferred to a nylon membrane and hybridized with ^32P-labeled PCR probe corresponding to αv. […] This effect was […] at higher concentrations (200-400 ng/ml) of Halofuginone (FIG. 4, lanes F-H). Next, RT-PCR was used to analyze the effect of Halofuginone on expression of the β3 and β5 integrin chains by the MDA 435 breast carcinoma cells. […] In contrast, there was no effect on expression of the β5 mRNA. As the αvβ3 integrin complex plays an important role in tumor angiogenesis, the anti-angiogenic effect of Halofuginone may be mediated in part by its inhibition of the β3 gene expression.

β3 integrin chain = assay: RT-PCR for β3 integrin chain in MDA 435 breast carcinoma cells; assay type: cell-based, human; settings: MDA 435 cells, 24 h, 200 ng/ml
Description: as §2

β5 integrin chain = assay: RT-PCR for β5 integrin chain in MDA 435 breast carcinoma cells; assay type: cell-based, human; settings: MDA 435 cells, 24 h, 10-400 ng/ml
Description: as §2

[5] = test system: Ang II-induced cardiac fibrosis; assay: Ang II-induced cardiac fibrosis in rats: histology and collagen volume quantitation (Sirius red); assay type: in vivo, rat
Description: The experimental method was as follows. Male Sprague-Dawley rats were divided into four groups. Two groups were chronically infused with Ang II at the rate of 0.150 ng/min by implanted mini-pump. This dosage regimen will induce severe cardiac fibrosis. The other two groups of rats, control rats, were injected with saline. One group of Ang II-treated rats and one control group were daily injected intraperitoneally with 16 micrograms of Halofuginone. At the end of the experimental period, the rats were sacrificed and the heart was removed and weighed. Heart samples were taken for histological examination. Briefly, the tissue samples were collected into phosphate-buffered saline (PBS) and fixed overnight in 4% paraformaldehyde in PBS at 4° C. Serial 5 μm sections were prepared after the samples had been dehydrated in graded ethanol solutions, cleared in chloroform and embedded in Paraplast. Differential staining of collagenous and non-collagenous proteins was performed with 0.1% Sirius red and 0.1% fast green as a counter-stain in picric acid. This procedure stains collagen red [Gascon-Barre, M., et al., J. Histochem. Cytochem., 37:377-381, 1989]. […] Indeed, the ventricular collagen volume fraction (CVF) was increased by threefold (p<0.05) in rats treated with Ang II, compared to rats treated with either Halofuginone alone or Halofuginone plus Ang II. In addition, the ventricular CVF for control rats was identical to that for rats treated with Halofuginone alone.

collagen α1(I) gene = assay: Ang II rat model: in situ hybridization of heart tissue with rat collagen α1(I) probe; assay type: in vivo; settings: rats given both Halofuginone and Ang II vs Ang II alone
Description: (§3) The experimental method was as follows. Male Sprague-Dawley rats were divided into four groups. Two groups were chronically infused with Ang II at the rate of 0.150 ng/min by implanted mini-pump. This dosage regimen will induce severe cardiac fibrosis. The other two groups of rats, control rats, were injected with saline. One group of Ang II-treated rats and one control group were daily injected intraperitoneally with 16 micrograms of Halofuginone. At the end of the experimental period, the rats were sacrificed and the heart was removed and weighed. Heart samples were then hybridized with a probe for rat collagen α1(I) expression, or with a probe for TGF β1 expression. For hybridization with one of the genetic probes, the sections were deparafinized in xylene, rehydrated through a graded series of ethanol solutions, rinsed in distilled water for 5 minutes and then incubated in 2×SSC at 70° C. for 30 minutes. The sections were then rinsed in distilled water and treated with pronase, 0.125 mg/ml in 50 mM Tris-HCl, 5 mM EDTA, pH 7.5, for 10 minutes. After digestion, the slides were rinsed with distilled water, post-fixed in 10% formalin in PBS and blocked in 0.2% glycine. After blocking, the slides were rinsed in distilled water, rapidly dehydrated through graded ethanol solutions and air-dried for several hours. […]

TGF β = assay: Ang II rat model: in situ hybridization of heart tissue with TGF-β1 probe; assay type: in vivo; settings: rats given Ang II plus Halofuginone vs Ang II
Description: as §3

cytokine IL-1β release = assay: Cytokine IL-1β release assay (MDS Panlabs); assay type: cell-based
Description: (§4) The ability of Halofuginone to inhibit various biochemical processes according to a set of assays for determining the percent inhibition of specific binding or activity of particular cellular proteins is described in greater detail in Table 1 below. The assays were performed by MDS Panlabs Inc. (Bothell, […]., USA). These assays included: the inhibition of release of the cytokines IL-1β and TNF-α; and the inhibition of the transcription of NF-κB.

cytokine TNF-α release = assay: Cytokine TNF-α release assay (MDS Panlabs); assay type: cell-based
Description: as §4

NF-κB transcription = NF-κB transcription assay (MDS Panlabs); assay type: cell-based
Description: as §4

collagen α1(I) mRNA = assay: Collagen α1(I) mRNA level in primary human fibroblasts; assay type: cell-based; settings: tested at the level of RNA
Description: The same protocol was used as previously. Primary human fibroblasts were treated for 1 hr with 10^−8 M Halofuginone. […] Arrays include 265 genes known to be involved in various types of cell interactions.

## O=C(CC1NCCC[C@H]1O)Cn1cnc2cc(Br)c(Cl)cc2c1=O (stereo partly drawn) [Halofuginone]
[1]
  collagen type I gene expression (products at 5.4 and 4.8 kb): inhibited collagen type I gene expression
[2]
  collagen type I gene expression: inhibiting collagen type I gene expression
cKrox gene expression
  cKrox gene expression: promoted cKrox gene expression
[3]; 25 ng/ml
  inhibition of the activity of MMP2 (72 kDa type IV collagenase): profound inhibition
[3]; 100 ng/ml
  inhibition of the activity of MMP2 (72 kDa type IV collagenase): almost complete inhibition
[4]
  cell invasion through matrigel ECM: inhibit cell invasion
H19 gene; 5376 bladder carcinoma cell line
  expression of the H19 gene: substantial reduction
H19 gene; RT112 bladder carcinoma cell line
  expression of the H19 gene: substantial reduction
αv integrin subunit; 200-400 ng/ml
  αv mRNA expression (up regulation effect): minimal
αv integrin subunit; 48 h, 10 and 50 ng/ml
  αv mRNA expression: up regulation
β3 integrin chain
  β3 mRNA expression: almost complete inhibition
β5 integrin chain
  β5 mRNA expression: no effect
[5]; Ang II-infused rats, 16 micrograms daily intraperitoneally
  Ang II-induced morphological changes in rat heart (histology): substantially inhibited
[5]; Halofuginone alone, without Ang II, two week period
  ventricular CVF: did not alter
[5]; rats given both Ang II and Halofuginone vs Ang II alone, 16 micrograms daily i.p.
  ventricular collagen volume (CVF): markedly reduced
Collagen α1(I) gene
  expression of collagen α1(I) gene in rat heart: marked reduction
TGF β
  Ang II-induced increase in expression of mRNA for TGF β in rat heart: not affected
Cytokine IL-1β release
  IC50: 0.0317 µM
Cytokine TNF-α release
  IC50: 0.0068 µM
NF-κB transcription
  IC50: 0.025 µM
Collagen α1(I) mRNA
  collagen α1(I) mRNA: reduced
